Experiments:
[1] = test system: Tyrosine-protein kinase ABL1 (Homo sapiens), P00519 [Y253F]; test: ABL1 Y253F Kinase screen; details: Compound concentration 1.0 uM
[2] = target: T1, Aurora kinase A (Homo sapiens) (UniProt O14965); test: AURKA (Aurora A) Kinase screen; details: Compound concentration 1.0 uM
T1 sequence (whole entry): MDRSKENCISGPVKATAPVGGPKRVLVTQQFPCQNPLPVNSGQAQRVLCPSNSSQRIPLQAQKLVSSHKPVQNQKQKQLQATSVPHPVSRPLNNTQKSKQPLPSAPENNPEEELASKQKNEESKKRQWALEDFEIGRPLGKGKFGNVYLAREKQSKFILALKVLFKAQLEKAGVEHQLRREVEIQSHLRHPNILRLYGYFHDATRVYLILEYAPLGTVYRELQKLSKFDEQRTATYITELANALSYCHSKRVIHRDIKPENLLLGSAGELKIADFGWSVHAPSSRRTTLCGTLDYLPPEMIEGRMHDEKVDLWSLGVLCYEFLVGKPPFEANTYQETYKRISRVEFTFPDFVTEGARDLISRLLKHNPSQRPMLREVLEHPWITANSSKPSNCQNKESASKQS

[3] = target: Calcium/calmodulin-dependent protein kinase kinase 1 (Homo sapiens) (UniProt Q8N5S9); test: CAMKK1 (CAMKKA) Kinase screen; details: Compound concentration 1.0 uM
Chain of Calcium/calmodulin-dependent protein kinase kinase 1 (Homo sapiens) (Q8N5S9 whole entry, looked up): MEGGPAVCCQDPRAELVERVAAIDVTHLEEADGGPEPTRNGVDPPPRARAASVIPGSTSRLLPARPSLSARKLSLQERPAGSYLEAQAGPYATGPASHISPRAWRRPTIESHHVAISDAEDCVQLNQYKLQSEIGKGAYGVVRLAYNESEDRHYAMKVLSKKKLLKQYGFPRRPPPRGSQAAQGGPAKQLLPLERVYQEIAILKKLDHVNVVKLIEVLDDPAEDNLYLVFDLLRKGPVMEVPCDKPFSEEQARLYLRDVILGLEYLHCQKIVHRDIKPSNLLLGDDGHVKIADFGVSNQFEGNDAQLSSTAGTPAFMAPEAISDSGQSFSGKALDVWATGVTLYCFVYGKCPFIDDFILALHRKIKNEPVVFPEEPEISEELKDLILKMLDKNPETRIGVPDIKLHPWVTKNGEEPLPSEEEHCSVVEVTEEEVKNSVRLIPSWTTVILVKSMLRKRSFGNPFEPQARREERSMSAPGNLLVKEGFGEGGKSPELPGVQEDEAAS

[4] = target: Ephrin type-A receptor 5 (Homo sapiens) (UniProt P54756); test: EPHA5 Kinase screen; details: Compound concentration 1.0 uM
Chain of Ephrin type-A receptor 5 (Homo sapiens) (P54756 whole entry): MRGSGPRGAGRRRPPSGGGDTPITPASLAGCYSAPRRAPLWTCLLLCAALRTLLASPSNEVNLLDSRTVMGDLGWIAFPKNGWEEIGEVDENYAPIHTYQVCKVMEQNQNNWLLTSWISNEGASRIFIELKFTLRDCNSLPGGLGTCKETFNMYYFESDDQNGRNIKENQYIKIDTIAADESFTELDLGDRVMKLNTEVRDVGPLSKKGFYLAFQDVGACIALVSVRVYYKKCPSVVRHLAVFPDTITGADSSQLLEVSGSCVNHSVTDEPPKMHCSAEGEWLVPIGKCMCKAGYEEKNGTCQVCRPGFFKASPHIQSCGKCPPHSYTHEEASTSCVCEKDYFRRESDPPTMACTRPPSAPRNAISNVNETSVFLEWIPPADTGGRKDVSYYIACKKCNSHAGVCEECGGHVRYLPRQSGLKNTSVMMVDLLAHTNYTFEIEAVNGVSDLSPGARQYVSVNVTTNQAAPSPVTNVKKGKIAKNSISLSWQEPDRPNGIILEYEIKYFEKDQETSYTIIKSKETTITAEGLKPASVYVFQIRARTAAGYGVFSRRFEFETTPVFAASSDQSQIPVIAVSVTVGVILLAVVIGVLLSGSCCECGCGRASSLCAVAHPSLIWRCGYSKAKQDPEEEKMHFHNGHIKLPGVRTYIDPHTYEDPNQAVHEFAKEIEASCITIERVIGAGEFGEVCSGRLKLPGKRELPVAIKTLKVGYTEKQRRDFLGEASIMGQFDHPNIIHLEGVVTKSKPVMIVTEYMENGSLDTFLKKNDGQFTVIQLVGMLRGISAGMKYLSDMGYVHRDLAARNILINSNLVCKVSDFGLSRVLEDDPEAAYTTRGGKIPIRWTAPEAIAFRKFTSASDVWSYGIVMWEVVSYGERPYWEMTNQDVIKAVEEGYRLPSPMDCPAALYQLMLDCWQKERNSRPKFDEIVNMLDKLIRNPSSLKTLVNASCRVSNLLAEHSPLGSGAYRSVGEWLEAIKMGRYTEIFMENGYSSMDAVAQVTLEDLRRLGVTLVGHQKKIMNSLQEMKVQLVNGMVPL

[5] = target: T2, Ephrin type-A receptor 8 (Homo sapiens) (UniProt P29322); test: EPHA8 Kinase screen; details: Compound concentration 1.0 uM
T2 sequence (whole entry): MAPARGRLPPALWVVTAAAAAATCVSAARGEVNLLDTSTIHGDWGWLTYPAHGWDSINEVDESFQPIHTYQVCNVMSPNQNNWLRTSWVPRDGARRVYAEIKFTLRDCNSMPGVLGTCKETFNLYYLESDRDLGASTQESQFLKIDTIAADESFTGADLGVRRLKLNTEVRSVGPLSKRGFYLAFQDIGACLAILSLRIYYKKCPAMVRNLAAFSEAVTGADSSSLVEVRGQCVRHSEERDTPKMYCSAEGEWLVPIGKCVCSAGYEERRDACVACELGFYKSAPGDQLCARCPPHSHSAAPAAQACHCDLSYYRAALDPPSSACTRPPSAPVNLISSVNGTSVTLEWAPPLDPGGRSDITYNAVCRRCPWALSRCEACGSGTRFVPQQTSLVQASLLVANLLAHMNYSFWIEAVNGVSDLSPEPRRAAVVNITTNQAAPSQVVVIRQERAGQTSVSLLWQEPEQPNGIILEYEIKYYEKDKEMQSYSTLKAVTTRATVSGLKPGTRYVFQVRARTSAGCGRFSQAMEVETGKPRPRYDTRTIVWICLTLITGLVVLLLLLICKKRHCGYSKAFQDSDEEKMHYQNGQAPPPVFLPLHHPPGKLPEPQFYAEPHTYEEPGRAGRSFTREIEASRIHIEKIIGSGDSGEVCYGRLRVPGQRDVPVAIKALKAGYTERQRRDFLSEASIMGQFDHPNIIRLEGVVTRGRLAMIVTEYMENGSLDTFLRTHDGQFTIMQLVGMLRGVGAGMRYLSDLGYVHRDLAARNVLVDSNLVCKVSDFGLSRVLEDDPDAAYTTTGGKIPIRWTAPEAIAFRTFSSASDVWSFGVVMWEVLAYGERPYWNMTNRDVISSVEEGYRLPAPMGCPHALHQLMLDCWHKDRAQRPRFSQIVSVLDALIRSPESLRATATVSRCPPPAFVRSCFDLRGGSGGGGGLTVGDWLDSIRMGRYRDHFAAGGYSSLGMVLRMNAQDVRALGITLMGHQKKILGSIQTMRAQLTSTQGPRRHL

[6] = target: Fibroblast growth factor receptor 2 (Homo sapiens) (UniProt P21802); test: FGFR2 Kinase screen; details: Compound concentration 1.0 uM
Chain of Fibroblast growth factor receptor 2 (Homo sapiens) (P21802 22-821 limits assumed): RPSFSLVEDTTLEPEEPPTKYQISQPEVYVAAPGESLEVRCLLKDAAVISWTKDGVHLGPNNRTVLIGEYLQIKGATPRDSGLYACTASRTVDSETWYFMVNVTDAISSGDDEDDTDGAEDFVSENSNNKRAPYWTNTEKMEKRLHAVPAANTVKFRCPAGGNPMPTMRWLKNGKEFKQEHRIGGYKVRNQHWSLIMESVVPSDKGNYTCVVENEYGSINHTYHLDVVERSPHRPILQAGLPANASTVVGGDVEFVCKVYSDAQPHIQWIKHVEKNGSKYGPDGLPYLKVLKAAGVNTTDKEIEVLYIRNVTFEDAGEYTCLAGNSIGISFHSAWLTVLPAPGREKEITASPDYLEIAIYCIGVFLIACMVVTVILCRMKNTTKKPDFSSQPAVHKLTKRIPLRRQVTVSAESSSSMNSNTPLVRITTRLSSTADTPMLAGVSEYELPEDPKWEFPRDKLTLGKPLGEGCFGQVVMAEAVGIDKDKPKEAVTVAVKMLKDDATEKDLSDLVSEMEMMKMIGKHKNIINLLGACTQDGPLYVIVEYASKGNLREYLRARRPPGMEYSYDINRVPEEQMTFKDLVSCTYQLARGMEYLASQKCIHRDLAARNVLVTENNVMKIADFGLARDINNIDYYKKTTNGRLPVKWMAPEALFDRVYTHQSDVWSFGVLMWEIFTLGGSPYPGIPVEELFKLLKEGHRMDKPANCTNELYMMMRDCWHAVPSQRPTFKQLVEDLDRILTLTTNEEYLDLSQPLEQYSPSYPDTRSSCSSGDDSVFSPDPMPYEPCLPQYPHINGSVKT

[7] = target: Glycogen synthase kinase-3 alpha (Homo sapiens) (UniProt P49840); test: GSK3A (GSK3 alpha) Kinase screen; details: Compound concentration 1.0 uM
Chain of Glycogen synthase kinase-3 alpha (Homo sapiens) (P49840 2-483 limits assumed): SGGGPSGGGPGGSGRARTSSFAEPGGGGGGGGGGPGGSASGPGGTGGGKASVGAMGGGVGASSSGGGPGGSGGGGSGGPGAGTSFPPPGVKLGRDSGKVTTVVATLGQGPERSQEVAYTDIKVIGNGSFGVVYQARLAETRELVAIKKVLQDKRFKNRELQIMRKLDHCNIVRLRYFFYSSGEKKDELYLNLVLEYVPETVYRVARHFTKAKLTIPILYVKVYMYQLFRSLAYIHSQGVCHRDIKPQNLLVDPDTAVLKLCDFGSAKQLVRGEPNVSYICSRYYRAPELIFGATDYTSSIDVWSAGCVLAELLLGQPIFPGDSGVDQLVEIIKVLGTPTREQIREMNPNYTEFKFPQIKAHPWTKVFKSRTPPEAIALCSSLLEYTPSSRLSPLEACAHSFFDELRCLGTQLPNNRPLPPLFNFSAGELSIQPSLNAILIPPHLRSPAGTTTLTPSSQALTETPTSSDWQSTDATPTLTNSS

[8] = target: T3, Dual specificity mitogen-activated protein kinase kinase 3 (Homo sapiens) (UniProt P46734); test: MAP2K3 (MEK3) Kinase screen; details: Compound concentration 1.0 uM
T3 sequence (whole entry): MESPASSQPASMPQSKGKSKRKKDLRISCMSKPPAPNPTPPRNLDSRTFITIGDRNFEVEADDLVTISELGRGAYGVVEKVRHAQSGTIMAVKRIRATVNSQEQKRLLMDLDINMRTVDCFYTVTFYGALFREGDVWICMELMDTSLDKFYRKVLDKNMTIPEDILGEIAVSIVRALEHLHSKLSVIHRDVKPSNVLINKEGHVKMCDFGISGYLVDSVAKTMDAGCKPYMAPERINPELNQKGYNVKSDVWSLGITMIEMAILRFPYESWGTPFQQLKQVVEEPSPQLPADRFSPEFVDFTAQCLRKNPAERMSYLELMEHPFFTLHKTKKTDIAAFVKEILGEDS

[9] = target: Mitogen-activated protein kinase 14 (Homo sapiens) (UniProt Q16539); test: MAPK14 (p38 alpha) Kinase screen; details: Compound concentration 1.0 uM
Chain of Mitogen-activated protein kinase 14 (Homo sapiens) (Q16539 whole entry): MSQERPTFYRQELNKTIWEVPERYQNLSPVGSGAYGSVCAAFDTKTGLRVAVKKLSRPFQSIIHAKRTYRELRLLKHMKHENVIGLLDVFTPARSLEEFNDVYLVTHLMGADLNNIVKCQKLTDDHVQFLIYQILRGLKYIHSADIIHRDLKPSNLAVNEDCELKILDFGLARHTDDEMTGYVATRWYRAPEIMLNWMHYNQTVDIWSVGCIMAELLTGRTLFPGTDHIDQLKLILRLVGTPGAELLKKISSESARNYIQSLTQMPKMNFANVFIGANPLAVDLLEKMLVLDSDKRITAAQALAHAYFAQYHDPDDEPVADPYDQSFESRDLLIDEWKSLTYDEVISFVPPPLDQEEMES

[10] = target: Serine/threonine-protein kinase PAK 3 (Homo sapiens) (UniProt O75914); test: PAK3 Kinase screen; details: Compound concentration 1.0 uM
Chain of Serine/threonine-protein kinase PAK 3 (Homo sapiens) (O75914 whole entry, looked up): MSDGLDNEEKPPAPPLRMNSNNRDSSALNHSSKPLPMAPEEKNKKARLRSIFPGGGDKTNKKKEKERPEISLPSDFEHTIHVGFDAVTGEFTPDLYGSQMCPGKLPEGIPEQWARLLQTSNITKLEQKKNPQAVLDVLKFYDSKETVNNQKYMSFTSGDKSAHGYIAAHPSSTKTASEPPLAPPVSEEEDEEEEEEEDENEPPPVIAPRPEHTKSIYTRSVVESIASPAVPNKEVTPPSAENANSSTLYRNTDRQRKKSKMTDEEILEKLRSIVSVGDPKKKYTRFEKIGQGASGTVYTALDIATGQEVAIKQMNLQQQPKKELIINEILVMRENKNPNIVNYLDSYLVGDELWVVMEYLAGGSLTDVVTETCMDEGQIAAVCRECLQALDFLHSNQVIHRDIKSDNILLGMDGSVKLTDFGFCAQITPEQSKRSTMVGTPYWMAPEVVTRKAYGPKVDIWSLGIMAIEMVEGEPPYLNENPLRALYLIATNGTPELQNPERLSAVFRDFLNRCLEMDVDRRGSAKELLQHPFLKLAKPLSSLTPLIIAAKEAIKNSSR

[11] = target: T4, Serine/threonine-protein kinase 4 (Homo sapiens) (UniProt Q13043); test: STK4 (MST1) Kinase screen; details: Compound concentration 1.0 uM
T4 sequence (whole entry): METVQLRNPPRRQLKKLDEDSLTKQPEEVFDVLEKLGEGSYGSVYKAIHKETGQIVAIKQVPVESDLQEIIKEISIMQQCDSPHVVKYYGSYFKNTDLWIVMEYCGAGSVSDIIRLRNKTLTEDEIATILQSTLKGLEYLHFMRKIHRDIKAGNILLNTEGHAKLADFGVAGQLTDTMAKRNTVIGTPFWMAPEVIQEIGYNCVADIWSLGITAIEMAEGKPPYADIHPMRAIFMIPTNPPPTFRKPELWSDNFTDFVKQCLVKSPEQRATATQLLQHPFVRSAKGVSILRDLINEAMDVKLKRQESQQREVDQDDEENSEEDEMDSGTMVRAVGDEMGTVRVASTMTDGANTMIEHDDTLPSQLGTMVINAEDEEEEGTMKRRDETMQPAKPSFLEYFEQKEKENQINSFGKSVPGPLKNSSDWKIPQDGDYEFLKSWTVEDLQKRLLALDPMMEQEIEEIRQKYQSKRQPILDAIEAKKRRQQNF

[12] = target: Tyrosine-protein kinase SYK (Homo sapiens) (UniProt P43405); test: SYK Kinase screen; details: Compound concentration 1.0 uM
[13] = target: Adrenomedullin receptor AM1; CALCRL/RAMP2 (Homo sapiens) (UniProt O60895+Q16602); test: Adrenomedullin AM1 Eurofins-Panlabs radioligand binding assay; assay type: protein-complex assay; details: Compound concentration 10.0 uM

Measured: inhibition

C[C@@H]1CN(c2cc(-c3n[nH]c4ccc(OC5(C)CC5)cc34)ncn2)C[C@H](C)O1 [MLi-2]
inactive: [1] 7.26% | [2] -0.211% | [3] 12.6% | [4] 5.05% | [5] 7.44% | [6] -3.35% | [7] 0.0184% | [8] -2.3% | [9] -6.52% | [10] 10.9% | [11] 21.8% | [12] 2.84% | [13] -8%
